Read-outs that look alike come from different tables or passages of the source.
Tests used:
[1] = target: T1, bovine serum albumin (BSA) (Bos taurus, UniProt P02769); assay: Substrate binding to BSA, rapid equilibrium dialysis (RED); assay type: in vitro ADME; conditions: for fu (± SD): 37°C, 7 h, n = 3
T1 construct: purchased Sigma-Aldrich (St. Louis, MO)
From the text: The fraction of unbound substrate in the presence of BSA was studied with the rapid equilibrium dialysis (RED) device (Thermo Scientific, Waltham, MA). In the RED system, two chambers in a well are separated with dialysis membrane. The transporter substrate (CDCF, E217βG or LY) was placed in the donor chamber in assay buffer with control membrane vesicles in the presence or absence of BSA to mimic the VT assay conditions. The final concentrations of BSA was 0.1% or 1.0%. Plain assay buffer was pipetted into the receiver chambers of all wells until the liquid level of both chambers was equal. […] Samples were incubated at 37°C on an orbital shaker. After 7 hour incubation, a small aliquot was collected from each receiver chamber for analysis. The relative fraction of unbound substrate (fu) was calculated as the ratio of concentrations in the receiver chambers from the samples with and without BSA.
Acetonitrile and phosphate buffers were used as mobile phase and flow rate was 0.5 ml/min.

human MRP2 [2] = target: T2, human MRP2 (Homo sapiens, UniProt Q92887)
T2 sequence (Q92887 whole entry): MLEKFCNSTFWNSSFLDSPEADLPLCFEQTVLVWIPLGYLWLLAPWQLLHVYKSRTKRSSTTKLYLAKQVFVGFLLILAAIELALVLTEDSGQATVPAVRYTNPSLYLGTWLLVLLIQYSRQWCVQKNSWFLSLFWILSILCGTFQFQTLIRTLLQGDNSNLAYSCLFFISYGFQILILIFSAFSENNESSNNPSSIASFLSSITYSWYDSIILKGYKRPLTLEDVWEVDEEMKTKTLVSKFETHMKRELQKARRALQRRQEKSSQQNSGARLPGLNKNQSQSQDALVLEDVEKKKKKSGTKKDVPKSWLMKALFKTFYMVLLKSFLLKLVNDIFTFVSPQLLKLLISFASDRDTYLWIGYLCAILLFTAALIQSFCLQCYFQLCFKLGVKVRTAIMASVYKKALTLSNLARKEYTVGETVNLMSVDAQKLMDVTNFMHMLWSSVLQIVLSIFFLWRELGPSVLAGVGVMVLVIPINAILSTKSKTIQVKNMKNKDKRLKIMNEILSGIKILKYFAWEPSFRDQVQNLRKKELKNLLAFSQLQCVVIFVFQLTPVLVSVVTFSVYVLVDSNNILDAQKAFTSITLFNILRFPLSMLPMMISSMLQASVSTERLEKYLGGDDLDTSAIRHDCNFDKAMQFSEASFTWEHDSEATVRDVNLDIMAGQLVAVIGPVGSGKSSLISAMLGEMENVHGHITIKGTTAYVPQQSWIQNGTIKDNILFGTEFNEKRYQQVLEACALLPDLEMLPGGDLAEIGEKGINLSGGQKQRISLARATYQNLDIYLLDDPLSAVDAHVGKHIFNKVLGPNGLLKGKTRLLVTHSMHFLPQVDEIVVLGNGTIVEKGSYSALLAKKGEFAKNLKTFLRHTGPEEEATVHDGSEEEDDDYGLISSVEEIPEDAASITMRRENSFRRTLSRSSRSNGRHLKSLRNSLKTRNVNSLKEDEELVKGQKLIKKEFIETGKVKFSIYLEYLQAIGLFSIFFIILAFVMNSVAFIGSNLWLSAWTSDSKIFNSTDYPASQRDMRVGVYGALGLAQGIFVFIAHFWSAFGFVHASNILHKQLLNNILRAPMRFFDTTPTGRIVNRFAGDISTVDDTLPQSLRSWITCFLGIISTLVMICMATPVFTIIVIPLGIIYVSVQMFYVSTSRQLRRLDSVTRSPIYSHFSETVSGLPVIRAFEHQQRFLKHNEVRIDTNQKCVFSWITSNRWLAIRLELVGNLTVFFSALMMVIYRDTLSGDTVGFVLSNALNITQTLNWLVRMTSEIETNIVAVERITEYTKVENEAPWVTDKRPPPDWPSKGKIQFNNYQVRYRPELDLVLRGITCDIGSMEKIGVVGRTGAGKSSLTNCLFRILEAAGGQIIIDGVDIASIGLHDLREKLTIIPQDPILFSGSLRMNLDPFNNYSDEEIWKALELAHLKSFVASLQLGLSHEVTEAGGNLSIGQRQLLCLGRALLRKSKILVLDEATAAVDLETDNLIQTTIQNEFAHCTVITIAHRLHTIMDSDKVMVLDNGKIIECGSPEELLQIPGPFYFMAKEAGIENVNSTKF
From the text: v=Vmax[S]^h/Km^h+[S]^h (2)

UGT2A1 = test system: UGT2A1; design: method as in PMID 23372764; conditions: cited from earlier work
UGT1A7 = test system: UGT1A7; design: method as in PMID 23372764; conditions: cited from earlier work
UGT2B7 = conditions: cited from earlier work
human BCRP [3] = target: T3, human BCRP (Homo sapiens, UniProt Q9UNQ0); assay: Inhibition of LY uptake into BCRP vesicles by oleic acid (VT assay)
T3 sequence (Q9UNQ0 1-655): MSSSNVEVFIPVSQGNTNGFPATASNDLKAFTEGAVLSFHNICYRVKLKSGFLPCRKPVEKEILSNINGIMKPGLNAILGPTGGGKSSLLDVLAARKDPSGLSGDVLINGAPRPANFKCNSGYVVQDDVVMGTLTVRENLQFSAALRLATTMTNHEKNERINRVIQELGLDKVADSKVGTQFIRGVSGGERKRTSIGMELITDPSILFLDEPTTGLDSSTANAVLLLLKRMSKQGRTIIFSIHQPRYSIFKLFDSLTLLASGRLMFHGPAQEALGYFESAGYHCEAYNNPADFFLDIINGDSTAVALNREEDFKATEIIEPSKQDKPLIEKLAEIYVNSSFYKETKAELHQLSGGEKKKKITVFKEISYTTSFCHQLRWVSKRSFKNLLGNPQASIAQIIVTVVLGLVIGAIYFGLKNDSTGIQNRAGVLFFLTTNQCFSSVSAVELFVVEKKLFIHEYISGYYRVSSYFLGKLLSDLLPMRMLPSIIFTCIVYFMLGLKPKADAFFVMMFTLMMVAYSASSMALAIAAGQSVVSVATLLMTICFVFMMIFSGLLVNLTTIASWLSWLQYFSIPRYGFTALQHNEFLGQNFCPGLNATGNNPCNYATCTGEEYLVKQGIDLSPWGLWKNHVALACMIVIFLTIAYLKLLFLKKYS
Description: (§1) The modulation of MRP2 and BCRP uptake by fatty acid oleic acid was also studied with the VT assay. The assay was performed as above, but oleic acid was present at various concentrations. The probe concentration in these studies was 5 μM for CDCF and 50 μM for LY. Plain vehicle (70% ethanol) was used as a control.
(§2) The oleic acid concentration required for 50% inhibition (IC50), was calculated from the concentration-response data using four parameter logistic regression, Response=Responsemin+Responsemax−Responsemin/1+([I]/IC50)^h (3) where response is the control normalized ATP-dependent uptake (%), Responsemin and Responsemax represent the plateaus corresponding to minimal and maximal normalized uptake (%), [I] is the concentration of inhibitor (μM), IC50 is the inhibitor concentration required for a response half-way between minimal and maximal response (μM) and h is the Hill coefficient. The Responsemin term was constrained to be larger than zero, where zero indicates full abolishment of uptake.

human MRP2 [4] = target: T2, human MRP2; assay: Inhibition of CDCF uptake into MRP2 vesicles by oleic acid (VT assay); conditions: 5 μM CDCF
Description: as §1, §2

BCRP [5] = test system: BCRP; design: method as in PMID 22819932; conditions: Caco-2 cells, oleic acid > 1 mM; cited from earlier work
BCRP [6] = test system: BCRP; design: method as in PMID 24342797; conditions: sandwich-cultured hepatocytes, oleic acid > 1 mM; cited from earlier work
[7] = test system: CYPs, human liver microsomes; design: method as in PMID 18256202, PMID 21305272; conditions: cited from earlier work
human BCRP [8] = target: T3, human BCRP; conditions: BCRP vesicles; for increase in maximal LY uptake by BCRP: 0.1% BSA vs no BSA; for Km: cholesterol loaded, best fit value (± standard error)
Description: Sf9 cells were cultured in suspension in HyQ SFX-Insect MP medium (Thermo Fisher Scientific, Waltham, MA) supplemented with 5% fetal bovine serum. Cells were infected with recombinant baculovirus-DNA and harvested and washed with phosphate buffered saline (PBS) approximately 60 hours after infection. Membranes were prepared from the cells using a modification of the Chu et al. [30] method as described in detail in [29]. To form the vesicles, the suspension was passed 10 times through a LIPEX™ Extruder (Northern Lipids Inc., Burnaby, BC, Canada) or 20 times through a 27 gauge needle. Protein concentration was measured using the Bio-Rad protein assay (Bio-Rad Laboratories Inc., Hercules, CA). Vesicles were stored at -75°C at protein concentrations of 3.5–5 mg/ml.
To improve the dynamic range of the assay, BCRP membranes were loaded with cholesterol similarly to Telbisz et al. [31], by incubating the membranes on ice for 20 minutes in the presence of the water-soluble cholesterol complex at a total concentration of 2.5 mM cholesterol. Excess of the complex was removed by diluting the mixture and centrifugation at 100 000 g at + 4°C for 1 h 15 min. The remaining membrane pellet was resuspended in membrane buffer (50 mM Tris–HCl pH 7.0, 50 mM mannitol, 2 mM EGTA). The resulting cholesterol concentration in the vesicles was roughly 100 μg/mg total protein as measured using the Amplex Red Cholesterol kit (Life Technologies, Carlsbad, CA).
The assay was carried out as a modification of the PREDIVEZ™ Vesicular Transport Kit protocol (SOLVO Biotechnology, Szeged, Hungary). In short, vesicle stocks were thawed and diluted with assay buffer (40 mM MOPS–Tris pH 7.0, 60 mM KCl, 6 mM MgCl2). The substrate at various concentrations was added subsequently with 0.1% or 1.0% BSA (w/v), or an equivalent volume of deionized water for the control. […] The well plate was preincubated at 37°C for 5–10 minutes after which half of the samples were treated with prewarmed plain assay buffer (non-ATP control), and the other half with prewarmed Mg-ATP-solution (final concentration 4 mM). […] Transport was terminated with ice cold washing buffer (40 mM MOPS-Tris pH 7.0 and 70 mM KCl). Samples were quickly transferred to the MultiScreenHTS-FB Plate Glass fiber 1.0 μm / 0.65 μm Durapore filter plate (Millipore, Molsheim, France). Wells were immediately washed five times with 200 μl washing buffer and dried. 0.1 M sodium hydroxide was used to elute LY and CDCF, which were detected by fluorescence measurement.
ATP-dependent transport was calculated as the difference between uptake in the presence and absence of ATP. All assays were performed in triplicates on a 96-well plate. Curve fitting to the data was performed with GraphPad Prism 6.04 (GraphPad Software Inc., La Jolla, CA). Substrate data was fitted with the Michaelis-Menten equation v=Vmax[S]/Km+[S] (1) where v is the velocity of ATP-dependent transport, Vmax is the maximal transport velocity, [S] is the substrate concentration and Km is the Michaelis-Menten constant.

[9] = MRP2 vesicles, 0.1% BSA vs no BSA

T1 sequence (P02769 25-607): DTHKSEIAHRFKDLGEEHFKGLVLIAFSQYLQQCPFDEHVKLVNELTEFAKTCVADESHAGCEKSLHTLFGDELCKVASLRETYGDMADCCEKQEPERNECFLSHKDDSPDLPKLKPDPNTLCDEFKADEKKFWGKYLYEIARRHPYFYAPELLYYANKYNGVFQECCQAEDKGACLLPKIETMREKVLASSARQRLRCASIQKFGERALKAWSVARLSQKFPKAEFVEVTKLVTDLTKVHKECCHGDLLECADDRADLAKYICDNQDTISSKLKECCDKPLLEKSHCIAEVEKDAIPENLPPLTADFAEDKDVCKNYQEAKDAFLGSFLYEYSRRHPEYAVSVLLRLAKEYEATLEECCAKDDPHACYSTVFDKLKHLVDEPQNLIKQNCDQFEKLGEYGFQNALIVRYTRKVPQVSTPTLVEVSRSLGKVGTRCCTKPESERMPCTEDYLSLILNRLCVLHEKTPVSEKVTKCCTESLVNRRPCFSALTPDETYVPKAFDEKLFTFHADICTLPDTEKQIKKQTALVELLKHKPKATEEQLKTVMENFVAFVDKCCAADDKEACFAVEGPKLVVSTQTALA

Q: Which average fu ([1]; 0.1% BSA, average over concentrations) does the source give for “5(6)-carboxy-2’,7’-dichlorofluorescein [CDCF]” here?
A: 0.94

Q: What about the “fu (± SD)” value ([1]; 0.1% BSA, substrate 1 μM) of the same compound?
A: 0.92 (± 0.02)

Q: What about the “fu (± SD)” value ([1]; 0.1% BSA, substrate 5 μM) of the same compound?
A: 0.94 (± 0.02)

Q: What about the “fu (± SD)” value ([1]; 0.1% BSA, substrate 50 μM) of the same compound?
A: 0.96 (± 0.01)

Q: And the “fu (± SD)” value ([1]; 1.0% BSA, substrate 5 μM)?
A: 0.43 (± 0.02)

Q: And the “fu (± SD)” value ([1]; 1.0% BSA, substrate 50 μM)?
A: 0.53 (± 0.02)

Q: What about the “fu (± SD)” value ([1]; 1.0% BSA, substrate 200 μM) of the same compound?
A: 0.73 (± 0.03)

Q: What about the “increase of Vmax of uptake into MRP2 vesicles” value (human MRP2 [2]; 0.1% BSA vs no BSA) of the same compound?
A: 2 fold

Q: What about the “increase of Km by BSA” value (human MRP2 [2]; [9]) of the same compound?
A: ~63%

Q: And the “increase of Vmax by BSA” value (human MRP2 [2]; [9])?
A: roughly 110%

Q: What about the “Vmax in the presence of 0.1% BSA” value (human MRP2 [2]; MRP2 vesicles, Vmax in the absence of BSA set at 100%) of the same compound?
A: 210.4 (± 21.1) %

Q: With `Oc1ccc2cc[nH]c2c1` [6-hydroxyindole] as the compound, how does the “decrease in Km caused by albumin” value (UGT2A1) read?
A: > 20 fold

Q: What does the source list for `C[C@]12CC[C@@H]3c4ccc(O)cc4CC[C@H]3[C@@H]1CC[C@@H]2O[C@@H]1O[C@H](C(=O)O)[C@@H](O)[C@H](O)[C@H]1O` [E217βG]?
A: fu (± SD) ([1]; 0.1% BSA, substrate 15 μM): 0.96 (± 0.04); fu (± SD) ([1]; 0.1% BSA, substrate 50 μM): 1.00 (± 0.03); fu (± SD) ([1]; 0.1% BSA, substrate 150 μM): 0.98 (± 0.04); increase of Km by BSA (human MRP2 [2]; [9]): 36%

Q: For `CCN(CC)C(=O)/C(C#N)=C/c1cc(O)c(O)c([N+](=O)[O-])c1` [entacapone], which “increase in Vmax caused by albumin” value (UGT1A7) is on record?
A: up to 7 fold

Q: Which “increase in affinity caused by albumin” value (UGT2B7) does the source give for `Nc1nnc(-c2cccc(Cl)c2Cl)c(N)n1` [lamotrigine] here?
A: 7 fold

Q: Which results are given for `CCCCCCCC/C=C\CCCCCCCC(=O)O` [oleic acid]?
A: IC50 (human BCRP [3]): 28.2 µM; effect on substrate uptake (human MRP2 [4]): decreased the uptake of substrates; effect on BCRP-mediated transport of mitoxantrone (BCRP [5]): decrease BCRP-mediated transport of mitoxantrone; effect on BCRP-mediated transport of rosuvastatin (BCRP [6]): decrease BCRP-mediated transport

Q: With `CC(=O)O[C@H]1C(=O)[C@@]2(C)[C@H]([C@H](OC(=O)c3ccccc3)[C@]3(O)C[C@H](OC(=O)[C@H](O)[C@@H](NC(=O)c4ccccc4)c4ccccc4)C(C)=C1C3(C)C)[C@]1(OC(C)=O)CO[C@@H]1C[C@@H]2O` [paclitaxel] as the compound, how does the “decrease in Km of hydroxylation caused by albumin” value [7] read?
A: 3 fold

Q: For `O=C1NC(=O)C(c2ccccc2)(c2ccccc2)N1` [phenytoin], which “decrease in Km of hydroxylation caused by albumin” value [7] is on record?
A: 4 fold

Q: For `Cc1cn([C@H]2C[C@H](N=[N+]=[N-])[C@@H](CO)O2)c(=O)[nH]c1=O` [zidovudine], which “increase in affinity caused by albumin” value (UGT2B7) is on record?
A: 10 fold

Q: For Lucifer yellow [LY], which “fu (± SD)” value ([1]; 0.1% BSA, substrate 20 μM) is on record?
A: 0.98 (± 0.01)

Q: And the “fu (± SD)” value ([1]; 0.1% BSA, substrate 200 μM)?
A: 0.98 (± 0.03)

Q: What about the “increase in maximal LY uptake by BCRP” value (human BCRP [8]) of the same compound?
A: 28%

Q: And the “increase in maximal LY uptake by BCRP” value (human BCRP [8]; listed as Lucifer yellow)?
A: 30%

Q: What about the “Vmax in the presence of 0.1% BSA” value (human BCRP [8]; Vmax in the absence of BSA set at 100%) of the same compound?
A: 127.5 (± 6.2) %

Q: What about the Km (human BCRP [8]; read-out: Km with 0.1% BSA, 0.1% BSA) of the same compound?
A: 33.5 µM

Q: And the Km (human BCRP [8]; read-out: Km without BSA)?
A: 31.2 µM
